Experimental data from ChEMBL document CHEMBL1201862, “PubChem BioAssay data set” (2004).
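Cells were grown in 96-well plates and exposed to each compound for 48 hours at five concentrations; endpoints were interpolated linearly between bracketing concentrations, or set to the highest concentration if not reached. GI50 is the concentration that inhibits growth by half.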 Calls of active or inactive are those of the source. No stated cut-off is given here; in the data, active = GI50 up to about 1.1 µM and inactive = higher.

What was measured:
Assay in all cases: NCI tumour cell line growth inhibition, 48 h
UACC-257 = tested on: UACC-257
NCI-H23 = tested on: NCI-H23
KM12 = tested on: KM12
SF-268 = tested on: SF-268
M14 = tested on: M14
SF-295 = tested on: SF-295
PC-3 = tested on: PC-3
Malme-3M = tested on: Malme-3M
MDA-MB-435 = tested on: MDA-MB-435
LOX IMVI = tested on: LOX IMVI
A498 = tested on: A498
OVCAR-3 = tested on: OVCAR-3
MOLT-4 = tested on: MOLT-4
HCC 2998 = tested on: HCC 2998
COLO 205 = tested on: COLO 205
CCRF-CEM = tested on: CCRF-CEM
SK-OV-3 = tested on: SK-OV-3
SW-620 = tested on: SW-620
HL-60 = tested on: HL-60

Compound	GI50 (UACC-257)	GI50 (NCI-H23)	GI50 (KM12)	GI50 (SF-268)	GI50 (M14)	GI50 (SF-295)	GI50 (PC-3)	GI50 (Malme-3M)	GI50 (MDA-MB-435)	GI50 (LOX IMVI)	GI50 (A498)	GI50 (OVCAR-3)	GI50 (MOLT-4)	GI50 (HCC 2998)	GI50 (COLO 205)	GI50 (CCRF-CEM)	GI50 (SK-OV-3)	GI50 (SW-620)	GI50 (HL-60)
O=C(C[N+]1(c2ccccc2)CCOCC1)c1ccccc1	72.8 µM (inactive)	> 100 µM (inactive)	> 100 µM (inactive)	> 100 µM (inactive)	> 100 µM (inactive)	> 100 µM (inactive)	> 100 µM (inactive)	> 100 µM (inactive)	> 100 µM (inactive)	> 100 µM (inactive)	> 100 µM (inactive)	> 100 µM (inactive)	30.4 µM (inactive)	> 100 µM (inactive)	–	–	–	–	–
CCOC(=O)c1c(-c2ccc(Cl)cc2)c(C#N)c(=S)n(C2OC(COC(C)=O)C(OC(C)=O)C(OC(C)=O)C2OC(C)=O)c1-c1ccccc1 (stereo not drawn)	> 100 µM (inactive)	> 100 µM (inactive)	> 100 µM (inactive)	> 100 µM (inactive)	57.5 µM (inactive)	> 100 µM (inactive)	> 100 µM (inactive)	> 100 µM (inactive)	> 100 µM (inactive)	> 100 µM (inactive)	–	> 100 µM (inactive)	> 100 µM (inactive)	> 100 µM (inactive)	> 100 µM (inactive)	> 100 µM (inactive)	> 100 µM (inactive)	> 100 µM (inactive)	> 100 µM (inactive)
CCN(CC)C(=S)SNc1ccc(S(N)(=O)=O)cc1	> 100 µM (inactive)	> 100 µM (inactive)	> 71.6 µM (inactive)	> 75.7 µM (inactive)	24.5 µM (inactive)	> 66.5 µM (inactive)	47.8 µM (inactive)	42.1 µM (inactive)	> 57.7 µM (inactive)	38.9 µM (inactive)	> 100 µM (inactive)	–	0.789 µM (active)	> 100 µM (inactive)	68.7 µM (inactive)	–	> 100 µM (inactive)	13.7 µM (inactive)	0.064 µM (active)
N#CC1(C#N)C2CCCCC23OC(=N)C1(C#N)C(c1ccco1)O3 (stereo not drawn)	17.7 µM (inactive)	26.1 µM (inactive)	33.8 µM (inactive)	30.8 µM (inactive)	20.4 µM (inactive)	> 100 µM (inactive)	23 µM (inactive)	23.7 µM (inactive)	19.8 µM (inactive)	17.2 µM (inactive)	21.9 µM (inactive)	16.1 µM (inactive)	23 µM (inactive)	15.1 µM (inactive)	11.9 µM (inactive)	10.5 µM (inactive)	> 100 µM (inactive)	7.76 µM (inactive)	–
COc1nc(-c2c[nH]c3ccccc23)cnc1N	22.4 µM (inactive)	–	9.18 µM (inactive)	23.6 µM (inactive)	30.1 µM (inactive)	29.4 µM (inactive)	26.5 µM (inactive)	–	23.4 µM (inactive)	25.3 µM (inactive)	15.1 µM (inactive)	39.6 µM (inactive)	2.56 µM (inactive)	67.9 µM (inactive)	29 µM (inactive)	0.809 µM (active)	30.9 µM (inactive)	32.6 µM (inactive)	4.85 µM (inactive)
O=C(NC(=O)c1cc(-c2ccccc2)n[nH]1)c1ccccc1	> 100 µM (inactive)	> 100 µM (inactive)	> 100 µM (inactive)	> 100 µM (inactive)	> 100 µM (inactive)	> 100 µM (inactive)	> 100 µM (inactive)	–	> 100 µM (inactive)	> 100 µM (inactive)	> 100 µM (inactive)	> 100 µM (inactive)	> 100 µM (inactive)	> 100 µM (inactive)	> 100 µM (inactive)	> 100 µM (inactive)	> 100 µM (inactive)	> 100 µM (inactive)	–
COC(=O)C1=C(C)NC(C)=C(C(=O)OC)C1c1ccc(N=O)cc1	8.91 µM (inactive)	16.2 µM (inactive)	18.5 µM (inactive)	22.1 µM (inactive)	11.2 µM (inactive)	24.4 µM (inactive)	15.8 µM (inactive)	11.5 µM (inactive)	16.2 µM (inactive)	5.9 µM (inactive)	–	13.6 µM (inactive)	3.33 µM (inactive)	16.9 µM (inactive)	8.77 µM (inactive)	0.897 µM (active)	16.6 µM (inactive)	3.61 µM (inactive)	1.3 µM (inactive)
CC1=CC(=O)/C(=C/NC(=S)c2ccccc2)C(=O)O1	> 100 µM (inactive)	> 100 µM (inactive)	> 100 µM (inactive)	–	> 100 µM (inactive)	> 100 µM (inactive)	> 100 µM (inactive)	–	> 100 µM (inactive)	> 100 µM (inactive)	–	> 100 µM (inactive)	> 100 µM (inactive)	> 100 µM (inactive)	> 100 µM (inactive)	–	> 100 µM (inactive)	> 100 µM (inactive)	–
